Data: US20120245137A1 (Zalicus Pharmaceuticals Ltd., priority 2009, published 2012)

Key:
Format in all cases: cell-based
[1] = target: human α1G T-type channels (Homo sapiens, UniProt O43497); assay: T-type calcium channel block, whole cell patch clamp, α1G; details: HEK cells stably expressing human α1G; mainly non-inactivated protocol; values above 10,000 nM represented as 10000
Summary of the method: (§1)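 Blockade of T-type current was measured in human α1G- or α1H-expressing HEK 293 cells using whole-cell recording with ~5 MΩ pipettes. Test compounds, dissolved in external solution containing 0.1-0.01% DMSO, were applied close to the cell, and block was examined under both non-inactivating and inactivating voltage protocols.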

[2] = target: human α1H T-type channels (Homo sapiens, UniProt O95180); assay: T-type calcium channel block, whole cell patch clamp, α1H; details: HEK cells stably expressing human α1H; mainly non-inactivated protocol; values above 10,000 nM represented as 10000
Summary of the method: as §1

[3] = target: N-type calcium channel subunits (α1B, α2δ, and β3a) (Homo sapiens, UniProt Q00975); assay: Block of Cav2.2 channel, whole cell voltage clamp, manual and PatchXpress; details: Table 5; table follows Assay Example 3 (whole cell voltage clamp / PatchXpress); assay not given
Sequence of N-type calcium channel subunits (α1B, α2δ, and β3a) (Q00975 whole entry): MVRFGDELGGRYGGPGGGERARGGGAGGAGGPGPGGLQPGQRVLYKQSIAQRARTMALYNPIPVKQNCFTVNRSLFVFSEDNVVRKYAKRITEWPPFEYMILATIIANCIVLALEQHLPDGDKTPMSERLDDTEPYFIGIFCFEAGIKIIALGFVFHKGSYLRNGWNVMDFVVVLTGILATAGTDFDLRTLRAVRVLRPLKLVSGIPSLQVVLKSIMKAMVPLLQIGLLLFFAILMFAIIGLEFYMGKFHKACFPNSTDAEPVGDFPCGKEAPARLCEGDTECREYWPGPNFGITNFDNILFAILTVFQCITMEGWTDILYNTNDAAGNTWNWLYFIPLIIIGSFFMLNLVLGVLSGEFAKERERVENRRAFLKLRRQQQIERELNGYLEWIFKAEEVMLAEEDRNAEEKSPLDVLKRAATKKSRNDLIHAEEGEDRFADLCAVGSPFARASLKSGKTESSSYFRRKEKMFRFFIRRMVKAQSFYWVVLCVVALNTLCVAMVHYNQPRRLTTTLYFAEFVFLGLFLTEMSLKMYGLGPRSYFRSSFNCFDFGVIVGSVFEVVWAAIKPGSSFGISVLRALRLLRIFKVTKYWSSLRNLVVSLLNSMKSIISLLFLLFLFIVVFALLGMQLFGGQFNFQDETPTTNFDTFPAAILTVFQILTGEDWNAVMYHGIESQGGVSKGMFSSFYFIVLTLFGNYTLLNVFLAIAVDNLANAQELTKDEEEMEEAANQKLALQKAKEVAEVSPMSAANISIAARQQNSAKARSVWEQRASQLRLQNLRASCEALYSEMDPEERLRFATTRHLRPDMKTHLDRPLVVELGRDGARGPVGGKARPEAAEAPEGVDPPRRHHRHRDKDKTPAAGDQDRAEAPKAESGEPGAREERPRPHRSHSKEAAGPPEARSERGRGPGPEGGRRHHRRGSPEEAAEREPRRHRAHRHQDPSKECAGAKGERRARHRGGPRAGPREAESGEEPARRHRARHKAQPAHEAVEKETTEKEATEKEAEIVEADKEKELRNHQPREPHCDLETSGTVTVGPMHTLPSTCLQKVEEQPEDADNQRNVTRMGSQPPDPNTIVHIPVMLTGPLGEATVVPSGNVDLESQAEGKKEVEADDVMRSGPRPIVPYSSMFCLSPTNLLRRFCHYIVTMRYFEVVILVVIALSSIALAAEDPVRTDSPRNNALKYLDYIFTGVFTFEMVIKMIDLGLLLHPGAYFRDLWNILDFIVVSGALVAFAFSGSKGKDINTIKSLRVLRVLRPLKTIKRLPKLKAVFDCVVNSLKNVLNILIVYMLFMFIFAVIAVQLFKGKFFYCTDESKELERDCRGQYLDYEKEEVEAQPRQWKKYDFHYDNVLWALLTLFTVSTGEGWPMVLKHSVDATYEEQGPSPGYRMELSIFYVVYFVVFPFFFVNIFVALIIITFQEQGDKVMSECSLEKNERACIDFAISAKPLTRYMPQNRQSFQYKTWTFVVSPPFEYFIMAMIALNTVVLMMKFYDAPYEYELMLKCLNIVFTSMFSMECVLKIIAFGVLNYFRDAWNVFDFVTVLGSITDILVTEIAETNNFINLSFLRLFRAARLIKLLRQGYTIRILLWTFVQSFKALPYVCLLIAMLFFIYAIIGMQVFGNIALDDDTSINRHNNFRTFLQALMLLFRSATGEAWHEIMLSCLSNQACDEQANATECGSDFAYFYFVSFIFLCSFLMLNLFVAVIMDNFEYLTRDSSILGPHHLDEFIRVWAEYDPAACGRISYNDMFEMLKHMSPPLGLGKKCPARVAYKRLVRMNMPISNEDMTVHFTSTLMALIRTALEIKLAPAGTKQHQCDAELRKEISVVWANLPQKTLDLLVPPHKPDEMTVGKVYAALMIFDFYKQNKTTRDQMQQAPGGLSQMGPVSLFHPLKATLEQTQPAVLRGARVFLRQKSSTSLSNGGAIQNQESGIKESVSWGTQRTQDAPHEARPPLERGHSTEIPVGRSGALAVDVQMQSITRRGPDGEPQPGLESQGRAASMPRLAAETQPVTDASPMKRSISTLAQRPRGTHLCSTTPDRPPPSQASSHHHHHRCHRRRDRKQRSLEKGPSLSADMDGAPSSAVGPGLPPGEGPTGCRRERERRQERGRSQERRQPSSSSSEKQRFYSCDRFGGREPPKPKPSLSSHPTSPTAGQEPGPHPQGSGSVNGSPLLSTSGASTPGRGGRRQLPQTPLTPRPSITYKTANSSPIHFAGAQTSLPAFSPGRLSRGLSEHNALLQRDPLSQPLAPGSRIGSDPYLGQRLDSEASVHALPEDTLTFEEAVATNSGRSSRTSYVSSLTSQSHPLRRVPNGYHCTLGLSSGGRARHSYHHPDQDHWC
Sequence of N-type calcium channel subunits (α1B, α2δ, and β3a) (P54289 25-1103 partner): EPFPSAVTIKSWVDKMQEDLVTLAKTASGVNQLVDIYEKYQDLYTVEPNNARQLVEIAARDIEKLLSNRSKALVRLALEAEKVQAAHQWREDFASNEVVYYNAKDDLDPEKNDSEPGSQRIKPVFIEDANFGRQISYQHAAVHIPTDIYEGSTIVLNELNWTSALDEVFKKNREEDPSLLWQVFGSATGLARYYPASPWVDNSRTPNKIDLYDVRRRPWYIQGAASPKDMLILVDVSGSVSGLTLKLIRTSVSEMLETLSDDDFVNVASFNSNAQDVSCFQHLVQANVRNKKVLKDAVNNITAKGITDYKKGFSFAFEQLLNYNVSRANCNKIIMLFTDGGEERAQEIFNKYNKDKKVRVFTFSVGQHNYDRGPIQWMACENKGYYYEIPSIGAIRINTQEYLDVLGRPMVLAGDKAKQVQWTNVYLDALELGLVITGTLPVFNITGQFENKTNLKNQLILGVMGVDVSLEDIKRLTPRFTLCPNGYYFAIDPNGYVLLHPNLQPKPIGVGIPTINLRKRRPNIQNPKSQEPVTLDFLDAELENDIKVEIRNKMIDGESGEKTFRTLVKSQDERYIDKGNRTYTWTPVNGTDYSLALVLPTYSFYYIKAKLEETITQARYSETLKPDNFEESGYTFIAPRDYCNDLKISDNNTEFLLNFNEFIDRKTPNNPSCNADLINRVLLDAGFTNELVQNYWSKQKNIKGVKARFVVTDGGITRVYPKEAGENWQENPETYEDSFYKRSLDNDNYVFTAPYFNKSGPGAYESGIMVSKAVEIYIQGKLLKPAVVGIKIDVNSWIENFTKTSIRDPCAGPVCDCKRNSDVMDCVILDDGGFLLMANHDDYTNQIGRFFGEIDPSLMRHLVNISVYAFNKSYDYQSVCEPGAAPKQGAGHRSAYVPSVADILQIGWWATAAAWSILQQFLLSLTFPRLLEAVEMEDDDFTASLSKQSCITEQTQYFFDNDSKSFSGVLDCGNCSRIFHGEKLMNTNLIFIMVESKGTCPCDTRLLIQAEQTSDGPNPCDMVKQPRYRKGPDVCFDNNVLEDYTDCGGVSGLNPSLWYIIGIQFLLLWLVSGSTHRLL
Sequence of N-type calcium channel subunits (α1B, α2δ, and β3a) (P54284 whole entry partner): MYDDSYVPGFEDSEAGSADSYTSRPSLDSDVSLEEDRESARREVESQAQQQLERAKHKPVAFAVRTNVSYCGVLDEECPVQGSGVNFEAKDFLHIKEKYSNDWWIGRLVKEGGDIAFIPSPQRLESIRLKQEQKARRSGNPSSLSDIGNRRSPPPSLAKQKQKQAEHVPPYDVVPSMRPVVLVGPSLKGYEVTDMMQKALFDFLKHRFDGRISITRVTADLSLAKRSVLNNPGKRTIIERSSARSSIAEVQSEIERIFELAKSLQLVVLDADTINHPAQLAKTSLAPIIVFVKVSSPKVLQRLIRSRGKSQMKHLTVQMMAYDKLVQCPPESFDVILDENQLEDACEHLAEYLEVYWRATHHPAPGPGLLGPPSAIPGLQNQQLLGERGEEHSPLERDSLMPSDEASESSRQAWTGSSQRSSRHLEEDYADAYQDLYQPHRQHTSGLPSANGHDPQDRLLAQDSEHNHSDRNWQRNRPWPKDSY
Summary of the method: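 Percent block taken as current amplitude ratio with versus without compound, applied in rising doses; IC50 fitted where one cell received multiple doses. Protocol: 50 ms pulses to +20 mV at 0.067 Hz from […] or −90 mV holding; P/n leak subtraction, no junction-potential correction; manual and PatchXpress recordings.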

| Molecule | IC50 [1] [nM] | IC50 [2] [µM] | IC50 [3] [nM] |
| --- | --- | --- | --- |
| O=C(NC[C@H]1C[C@H](S(=O)(=O)c2cccc(C(F)(F)F)c2)C1)c1ccc(Cl)c(OC(F)(F)F)c1 [Compound 366, 4-chloro-3-(trifluoromethoxy)-N-(((1R,3R)-3-(3-(trifluoromethyl)phenylsulfonyl)cyclobutyl)methyl)benzamide] | > 10000 | > 10 | 190 |
| Cn1nc(C(F)(F)F)cc1C(=O)NC1CCC(C)(S(=O)(=O)c2cccc(C(F)(F)F)c2)CC1 (stereo not drawn) [Compound 6, 1-methyl-N-(4-methyl-4-(3-(trifluoromethyl)phenylsulfonyl)cyclohexyl)-3-(trifluoromethyl)-1H-pyrazole-5-carboxamide] | > 10000 | > 10 | 330 |
| CC(C)(C)OC(=O)N[C@H]1CC[C@H](S(=O)(=O)c2cccc(C(F)(F)F)c2)CC1 [Compound 95, tert-butyl(1R,4R)-4-(3-(trifluoromethyl)phenylsulfonyl) cyclohexylcarbamate] | 6970 | 2.15 | 1640 |
| O=C(CNC1CCCCC1)N[C@H]1CC[C@H](CS(=O)(=O)c2cccc(C(F)(F)F)c2)CC1 [Compound 162, 2-(cyclohexylamino)-N-((1R,4R)-4-((3-(trifluoromethyl)phenylsulfonyl)methyl)cyclohexyl)acetamide] | > 10000 | > 10 | 540 |
| CC(C)(C)NC(=O)CNC1CCC(C)(S(=O)(=O)c2cccc(C(F)(F)F)c2)CC1 (stereo not drawn) [Compound 15, N-tert-butyl-2-(4-methyl-4-(3-(trifluoromethyl)phenylsulfonyl)cyclohexylamino)acetamide] | > 10000 | 4.62 | 50 |
| O=C(CNC[C@H]1CC[C@@H](S(=O)(=O)c2cccc(C(F)(F)F)c2)CC1)NCC(F)(F)F [Compound 37, N-(2,2,2-trifluoroethyl)-2-(((1S,4S)-4-(3-(trifluoromethyl)phenylsulfonyl)cyclohexyl)methylamino)acetamide] | 9280 | 3.62 | 1310 |
| O=C(N[C@H]1CC[C@@](F)(S(=O)(=O)c2cccc(C(F)(F)F)c2)CC1)c1cnc(C(F)(F)F)nc1 [Compound 261, N-((1S,4S)-4-fluoro-4-(3-(trifluoromethyl)phenylsulfonyl)cyclohexyl)-2-(trifluoromethyl)pyrimidine-5-carboxamide] | > 10000 | 7.18 | 1720 |
| O=C(NC[C@H]1C[C@@H](S(=O)(=O)c2cccc(C(F)(F)F)c2)C1)c1ccc(C(F)(F)F)cn1 [Compound 385, 5-(trifluoromethyl)-N-(((1S,3S)-3-(3-(trifluoromethyl)phenylsulfonyl)cyclobutyl)methyl)picolinamide] | > 10000 | > 10 | 710 |
| Cc1nc(C(F)(F)F)ccc1NC(=O)[C@H]1C[C@H](S(=O)(=O)c2cccc(C(F)(F)F)c2)C1 [Compound 417, (1R,3R)-N-(2-methyl-6-(trifluoromethyl)pyridin-3-yl)-3-(3-(trifluoromethyl)phenylsulfonyl)cyclobutane carboxamide] | > 10000 | 4.69 | 5440 |
| CN(C(=O)c1ncc(C(F)(F)F)cc1S(C)(=O)=O)[C@H]1CC[C@@](F)(S(=O)(=O)c2cc(F)cc(C(F)(F)F)c2)CC1 [Compound 337, N-((1S,4S)-4-fluoro-4-(3-fluoro-5-(trifluoromethyl)phenylsulfonyl)cyclohexyl)-N-methyl-3-(methylsulfonyl)-5-(trifluoromethyl)picolinarnide] | > 10000 | 8.66 | 910 |
| CC(C)(C)NC(=O)CNC1(C)CCC(F)(S(=O)(=O)c2cccc(C(F)(F)F)c2)CC1 (stereo not drawn) [Compound 98, N-tert-butyl-2-(4-fluoro-1-methyl-4-(3-(trifluoromethyl)phenylsulfonyl)cyclohexylamino)acetamide] | > 10000 | > 10 | 680 |
| CC1(S(=O)(=O)c2cccc(C(F)(F)F)c2)CCC(NC(=O)c2ccc(C(F)(F)F)nc2)CC1 (stereo not drawn) [Compound 1, N-(4-methyl-4-(3-(trifluoromethyl)phenylsulfonyl)cyclohexyl)-6-(trifluoromethyl) nicotinamide] | > 10000 | 7.4 | 1030 |
| O=C(N[C@H]1CC[C@@](F)(S(=O)(=O)c2cc(F)cc(C(F)(F)F)c2)CC1)c1ccc(F)c(Cl)c1 [Compound 329, 3-chloro-4-fluoro-N-((1S,4S)-4-fluoro-4-(3-fluoro-5-(trifluoromethyl)phenylsulfonyl)cyclohexyl) benzamide] | > 10000 | > 10 | 350 |
| O=C(N[C@H]1C[C@H](CS(=O)(=O)c2cccc(C(F)(F)F)c2)C1)c1cc(F)cc(Cl)c1 [Compound 344, 3-chloro-5-fluoro-N-((1R,3R)-3-((3-(trifluoromethyl)phenylsulfonyl)methyl)cyclobutyl)benzamide] | > 10000 | > 10 | 680 |
| CC(C)S(=O)(=O)c1cc(C(F)(F)F)cnc1C(=O)N[C@H]1CC[C@@H](S(=O)(=O)c2cccc(C(F)(F)F)c2)CC1 [Compound 339, 3-(isopropylsulfonyl)-5-(trifluoromethyl)-N-((1S,4S)-4-(3-(trifluoromethyl)phenylsulfonyl)cyclohexyl) picolinamide] | 5270 | 3.33 | 220 |
| CN(C(=O)c1cn2cc(C(F)(F)F)ccc2n1)[C@H]1CC[C@@](F)(S(=O)(=O)c2cc(F)cc(C(F)(F)F)c2)CC1 [Compound 338, N-((1S,4S)-4-fluoro-4-(3-fluoro-5-(trifluoromethyl)phenylsulfonyl)cyclohexyl)-N-methyl-6-(trifluoromethyl) imidazo[1,2-a]pyridine-2-carboxamide] | > 10000 | 6.79 | 770 |

Now those with a lower IC50 [1], led by results:

| IC50 [1] [nM] | IC50 [2] [µM] | IC50 [3] [nM] | Molecule |
| --- | --- | --- | --- |
| 780 | 0.76 | 100 | CC1(CNC(=O)c2ccc(F)c(C(F)(F)F)c2)CCC(S(=O)(=O)c2cccc(C(F)(F)F)c2)CC1 (stereo not drawn) [Compound 135, 4-fluoro-N-((1-methyl-4-(3-(trifluoromethyl)phenylsulfonyl)cyclohexyl)methyl)-3-(trifluoromethyl)benzamide] |
| 430 | 0.33 | 320 | 3-chloro-5-fluoro-N-((1S,4S)-4-((3- (trifluoromethyl)phenylsulfonyl) methyl)cyclohexyl)benzamide [Compound 137] |
| 2340 | 1.04 | 460 | O=C(NC[C@H]1C[C@@H](S(=O)(=O)c2cccc(C(F)(F)F)c2)C1)c1ccc(F)c(C(F)(F)F)c1 [Compound 377, 4-fluoro-3-(trifluoromethyl)-N-(((1S,3S)-3-(3-(trifluoromethyl)phenylsulfonyl)cyclobutyl)methyl)benzamide] |
| 970 | 0.85 | 400 | O=S(=O)(N[C@H]1CC[C@@](F)(S(=O)(=O)c2cccc(C(F)(F)F)c2)CC1)c1ccc(OC(F)(F)F)cc1 [Compound 302, N-((1S,4S)-4-fluoro-4-(3-(trifluoromethyl)phenylsultonyl)cyclohexyl)-4-(trifluoromethoxy) benzenesulfonamide] |
| 1550 | 1.07 | 3760 | O=S(=O)(CCC(F)(F)F)NC[C@H]1C[C@H](S(=O)(=O)c2cccc(C(F)(F)F)c2)C1 [Compound 425, 3,3,3-trifluoro-N-(((1R,3R)-3-(3-(trifluoromethyl)phenylsulfonyl)cyclobutyl)methyl)propane-1-sulfonamide] |
| 640 | 0.23 | 3760 | CC(C)(C)NC(=O)CN[C@H]1C[C@H](CS(=O)(=O)c2cccc(C(F)(F)F)c2)C1 [Compound 352, N-tert-butyl-2-((1R,3R)-3-((3-(trifluoromethyl)phenylsulfonyl)methyl)cyclobutylamino)acetamide] |
| 2140 | > 10 | 490 | O=C(CNCC1CC(S(=O)(=O)c2cccc(C(F)(F)F)c2)C1)NC1CCCCC1 (stereo not drawn) [Compound 97, N-cyclohexyl-2-((3-(3-(trifluoromethyl)phenylsulfonyl)cyclobutyl)methylamino)acetamide] |
| 2230 | 0.64 | 330 | CC1(NC(=O)c2ccc(F)c(C(F)(F)F)c2)CCC(F)(S(=O)(=O)c2cccc(C(F)(F)F)c2)CC1 (stereo not drawn) [Compound 92, 4-fluoro-N-(4-fluoro-1-methyl-4-(3-(trifluoromethyl)phenylsulfonyl)cyclohexyl)-3-(trifluoromethyl)benzamide] |
| 860 | 0.79 | 1540 | CC(C)NC(=O)CN[C@H]1CC[C@@H](S(=O)(=O)c2cccc(C(F)(F)F)c2)CC1 [Compound 52, N-isopropyl-2-((1S,4S)-4-(3-(trifluoromethyl)phenylsulfonyl)cyclohexylamino)acetamide] |
| 1820 | 0.96 | 180 | O=C1c2cc(C(F)(F)F)nn2CCN1[C@H]1CC[C@@](F)(S(=O)(=O)c2cc(F)cc(C(F)(F)F)c2)CC1 [Compound 333, 5-((1S,4S)-4-fluoro-4-(3-fluoro-5-(trifluoromethyl)phenylsulfonyl)cyclohexyl)-2-(trifluoromethyl)-6,7-dihydropyrazolo[l,5-a]pyrazin-4(5H)-one] |
